Measured values taken from patent US12384769B2, “Heteroaryl-substituted aminoalkyl azole compounds as pesticides” (Elanco Animal Health GmbH, priority 2019, dated 2025).

Assays:
Type in all cases: in vivo
[1] = test system: Ctenocephalides felis; test: Ctenocephalides felis in-vitro contact test, adult cat flea; conditions: 5 μg/cm^2 (=500 g/ha), after 48 hours, read-out: activity (efficacy, fleas dead or moribund)
Protocol: Ctenocephalides felis—in-Vitro Contact Tests Adult Cat Flea
(§1) 9 mg compound is solved in 1 ml acetone and diluted with acetone to the desired concentration. 250 of the test solution is filled in 25 ml glass test tubes and homogeneously distributed on the inner walls by rotation and tilting on a shaking device (2 h at 30 rpm). With a compound concentration of 900 ppm, an inner surface of 44.7 cm^2 and a homogeneous distribution, a dose of 5 μg/cm^2 is achieved.
(§2) After the solvent has evaporated, each test tube is filled with 5-10 adult cat fleas (Ctenocephalides felis), closed with a perforated lid and incubated in a lying position at room temperature and relative humidity. After 48 hours efficacy is determined. The fleas are patted on the ground of the tubes and are incubated on a heating plate at 45-50° C. for at most 5 minutes Immotile or uncoordinated moving fleas, which are not able to escape the heat by climbing upwards, are marked as dead or moribund.
An efficacy of 100% means all fleas are dead or moribund; 0% means no fleas are dead or moribund.

[2] = test system: Anopheles funestus strain FUMOZ-R; test: Anopheles funestus test (ANPHFU surface treatment & contact assay); conditions: 30 minutes exposure, 24 hours after contact, read-out: efficacy (mortality); for mortality at 4 mg/m2: surface concentration 4 mg/m^2, glazed tile
Protocol: Anopheles funestus Test (ANPHFU Surface Treatment & Contact Assay)
(§3) Solvent: Aceton+2000 ppm rapeseed oil methyl ester (RME)
(§4) In order to produce a sufficient, active ingredient containing solution it is necessary to solve the test compound in the solvent-mix (acetone at 2 mg/mL/RME 2000 ppm). This solution is pipetted onto a glazed tile and after evaporation of the acetone, adult mosquitoes of the species Anopheles funestus strain FUMOZ-R (Hunt et al., Med. Vet. Entomol. 2005 September; 19(3): 271-275) are placed onto the dried surface. The exposure time is 30 minutes.
(§5) Mortality in percent (%) is determined 24 hours after contact of the insects to the treated surface. 100% mortality means that all tested insects are dead, whereas 0% means that no insect died.

[3] = test system: Aedes aegypti strain MONHEIM; test: Aedes aegypti test (AEDSAE surface treatment & contact assay); conditions: 30 minutes exposure, 24 hours after contact, read-out: efficacy (mortality); for mortality at 4 mg/m2: surface concentration 4 mg/m^2, glazed tile; for mortality at 20 mg/m2: surface concentration 20 mg/m^2, glazed tile
Protocol: Aedes aegypti Test (AEDSAE Surface Treatment & Contact Assay)
as §3
as §4, with “Aedes aegypti” for “Anopheles funestus”, “MONHEIM” for “FUMOZ-R (Hunt et al., Med. Vet. Entomol. 2005 September; 19(3): 271-275)”
as §5

[4] = test system: Rhipicephalus sanguineus; test: Rhipicephalus sanguineus in-vitro contact test, adult brown dog ticks (RHIPSA Contact); conditions: 5 μg/cm^2 (=500 g/ha), after 48 hours, read-out: activity (efficacy, ticks dead or moribund)
Protocol: Rhipicephalus sanguineus—in-Vitro Contact Tests with Adult Brown Dog Ticks (RHIPSA Contact)
as §1, with “250 μl_,” for “250”
as §2, with “brown dog ticks (Rhipicephalus sanguineus),” for “cat fleas (Ctenocephalides felis),”, “ticks” for “fleas”, “ticks,” for “fleas,”
An efficacy of 100% means all ticks are dead or moribund; 0% means no ticks are dead or moribund.

[5] = test system: Musca domestica strain WHO-N; test: Musca domestica test (MUSCDO surface treatment & contact assay); conditions: surface concentration 4 mg/m^2, glazed tile, 30 minutes exposure, 24 hours after contact, read-out: efficacy (mortality)
Protocol: Musca domestica Test (MUSCDO Surface Treatment & Contact Assay)
as §3
as §4, with “flies” for “mosquitoes”, “Musca domestica” for “Anopheles funestus”, “WHO—N” for “FUMOZ-R (Hunt et al., Med. Vet. Entomol. 2005 September; 19(3): 271-275)”
as §5

[6] = test system: Myzus persicae; test: Myzus persicae oral test; conditions: 120 h, after 5 days
Protocol: Solvent: 100 parts by weight acetone
Afterwards the plates are sealed with parafilm through which a mixed population of the green peach aphid (Myzus persicae) can suck on the compound preparation.
(§6) After 5 days mortality in % is determined. 100% means all aphids have been killed and 0% means none of the aphids have been killed.

[7] = test system: Diabrotica balteata; test: Diabrotica balteata spray test; conditions: 168 h, wheat seeds, after 7 days, read-out: activity (efficacy, seedlings grown); for pest or weed control at 160 µg/disc, 500 g/ha: 500 g/ha (=160 μg/well)
Method in brief: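 Germinated wheat seedlings (5 per well, on agar) sprayed with compound in acetone/DMF with emulsifier-containing water, then infested with 10–20 Diabrotica balteata larvae. Efficacy (%) scored after 7 days from seedling growth: 100% = growth as untreated uninfested control, 0% = no seedlings grown.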

[8] = test system: Spodoptera frugiperda; test: Spodoptera frugiperda spray test; conditions: in Zea mays, 168 h, read-out: activity (mortality)
Method in brief: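 Compound in acetone/DMF, diluted in water with 1000 ppm alkylarylpolyglycol ether emulsifier, sprayed on maize leaf sections. Dried leaves infested with fall armyworm larvae; % mortality after 7 days (100% = all killed, 0% = none).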

[9] = test system: Rhipicephalus microplus (strain Parkhurst, resistant against synthetic pyrethroids); test: Rhipicephalus microplus in-vitro contact test, larval cattle tick (BOOPMI Contact); conditions: 5 μg/cm^2 (=500 g/ha), after 48 hours, read-out: activity (efficacy, larvae dead or moribund)
Method in brief: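 Glass tubes coated with compound in acetone (900 ppm giving 5 μg/cm²), dried, then loaded with 20-50 pyrethroid-resistant Parkhurst larvae and held at 27 °C, 85% RH. After 48 h negative geotaxis is scored; efficacy in % dead or moribund larvae.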

[10] = test system: Ctenocephalides felis; test: Ctenocephalides felis oral test (CTECFE); conditions: 48 h, 100 ppm in cattle blood, after 2 days
Method in brief: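 About 20 adult unfed fleas fed through parafilm on cattle blood held at 37° C and dosed with compound from a DMSO concentrate; flea chamber at room temperature. Percent mortality scored after 2 days.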

[11] = test system: Boophilus microplus; test: Boophilus microplus injection test (BOOPMI Injection); conditions: Rhipicephalus microplus, 168 h, injection into adult engorged female ticks, egg deposition after 7 days, read-out: activity (efficacy, infertile eggs); for pest or weed control at 0.004 mg: 4 μg/animal; for pest or weed control at 0.02 mg: 20 μg/animal
Method in brief: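 Adult engorged female ticks (5 per group) injected into the abdomen with 1 μL compound in DMSO, then held in a climate chamber. Fertile egg deposition scored after 7 days, with unclear eggs kept until hatching (~42 days). Efficacy 100% = all eggs infertile, 0% = all fertile.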

[12] = test system: Myzus persicae; test: Myzus persicae spray test; conditions: foliar, 120 h, 500 g/ha, Chinese cabbage leaf disks, after 5 days
Protocol: Myzus persicae—Spray Test
Solvent: 78.0 parts by weight acetone • 1.5 parts by weight dimethylformamide
Emulsifier: alkylarylpolyglycol ether
To produce a suitable preparation of active compound, 1 part by weight of active compound is mixed with the stated amount of solvents and is diluted with water, containing an emulsifier concentration of 1000 ppm, to the desired concentration. Further test concentrations are prepared by dilution with emulsifier containing water.
Chinese cabbage (Brassica pekinensis) leaf disks infected with all instars of the green peach aphid (Myzus persicae), are sprayed with a preparation of the active ingredient of the desired concentration.
as §6

`C[C@H](Nc1nc2cc(C(F)(F)F)c(Cl)cc2o1)c1ncnn1-c1ncc(F)cn1` [Example I-061, 6-Chlor-N-{(1S)-1-[1-(5-fluorpyrimidin-2-yl)-1H-1,2,4-triazol-5-yl]ethyl}-5-(trifluormethyl)-1,3-benzoxazol-2-amin] showed a pest or weed control at 5 µg/cm2, 5 µg/cm2 [1] of 100%, a mortality at 4 mg/m2 [2] of 85 to 100% and a mortality at 4 mg/m2 [3] of 85 to 100%. The mortality at 20 mg/m2 [3] was 90 to 100%, the pest or weed control at 5 µg/cm2, 5 µg/cm2 [4] was 80% and the mortality at 4 mg/m2 [5] was 90 to 100%. The mortality at 4 ppm [6] was 100%, the pest or weed control at 100 g/ha [7] was 100% and the mortality at 100 g/ha [8] was 100%. For the same compound, the pest or weed control at 5 µg/cm2 [9] was 100%.
With `Cc1nc([C@H](C)Nc2nc3cc(C(F)(F)F)c(Cl)cc3o2)n(-c2ncccn2)n1` [Example I-011] the mortality at 100 ppm [10] was 100%, the pest or weed control at 5 µg/cm2, 5 µg/cm2 [4] was 80% and the mortality at 4 ppm [6] was 90%. The pest or weed control at 100 g/ha [7] was 100%, the pest or weed control at 160 µg/disc, 500 g/ha [7] was 100% and the pest or weed control at 0.004 mg [11] was 100%. The pest or weed control at 0.02 mg [11] was 100%, the mortality at 500 g/ha [8] was 100% and the pest or weed control at 5 µg/cm2 [9] was 80%.
Work on `C[C@H](Nc1nc2cc(C(F)(F)F)c(Cl)cc2o1)c1nc(C2CC2)nn1-c1ccc(C#N)cn1` [Example I-100, 6-{5-[(1S)-1-{[6-chloro-5-(trifluoromethyl)-1,3-benzoxazol-2-yl]amino}ethyl]-3-cyclopropyl-1H-1,2,4-triazol-1-yl}pyridine-3-carbonitrile] yielded a mortality at 4 ppm [6] of 90%, a pest or weed control at 100 g/ha [7] of 100% and a mortality at 100 g/ha [8] of 100%.
Compound `Cc1nc([C@H](C)Nc2nc3cc(Cl)cc(C(F)(F)F)c3o2)n(-c2ccc(C(F)(F)F)cn2)n1` [Example I-086, 5-Chlor-N-[(1S)-1-{3-methyl-1-[5-(trifluormethyl)pyridin-2-yl]-1H-1,2,4-triazol-5-yl}ethyl]-7-(trifluormethyl)-1,3-benzoxazol-2-amin] has a mortality at 4 ppm [6] of 90% and a pest or weed control at 5 µg/cm2 [9] of 90%.
Compound `C[C@H](Nc1nc2cc(C(F)(F)F)c(Cl)cc2o1)c1ncnn1-c1ncc(Cl)cn1` [Example I-059, 6-Chlor-N-{(1)S-1-[1-(5-chlorpyrimidin-2-yl)-1H-1,2,4-triazol-5-yl]ethyl}-5-(trifluormethyl)-1,3-benzoxazol-2-amin] has a pest or weed control at 5 µg/cm2, 5 µg/cm2 [1] of 100%, a mortality at 4 mg/m2 [2] of 85 to 100% and a mortality at 20 mg/m2 ([2]; surface concentration 20 mg/m^2, glazed tile) of 90 to 100%. It also gave a mortality at 4 mg/m2 [3] of 85 to 100%, a mortality at 20 mg/m2 [3] of 90 to 100% and a pest or weed control at 5 µg/cm2, 5 µg/cm2 [4] of 100%. The mortality at 4 mg/m2 [5] was 90 to 100%, the mortality at 4 ppm [6] was 90% and the pest or weed control at 100 g/ha [7] was 100%. The mortality at 100 g/ha [8] was 100% and the pest or weed control at 5 µg/cm2 [9] was 100%.
`Cc1cnc(-n2ncnc2[C@H](C)Nc2nc3cc(C(F)(F)F)c(Cl)cc3o2)nc1` [Example I-060, 6-Chlor-N-{(1S)-1-[1-(5-methylpyrimidin-2-yl)-1H-1,2,4-triazol-5-yl]ethyl}-5-(trifluormethyl)-1,3-benzoxazol-2-amin] showed a pest or weed control at 5 µg/cm2, 5 µg/cm2 [1] of 100%, a pest or weed control at 5 µg/cm2, 5 µg/cm2 [4] of 80% and a mortality at 4 ppm [6] of 90%. It also gave a pest or weed control at 100 g/ha [7] of 100%, a mortality at 100 g/ha [8] of 83% and a pest or weed control at 5 µg/cm2 [9] of 100%.
`C[C@H](Nc1nc2cc(C(F)(F)F)cc(Cl)c2o1)c1ncnn1-c1ncccn1` [Example I-006] was tested, and the pest or weed control at 5 µg/cm2, 5 µg/cm2 [1] was 100%, the mortality at 4 mg/m2 [3] was 85 to 100% and the mortality at 100 ppm [10] was 100%. For the same compound, the mortality at 4 ppm [6] was 90%, the pest or weed control at 160 µg/disc, 500 g/ha [7] was 100% and the pest or weed control at 0.004 mg [11] was 100%. The pest or weed control at 0.02 mg [11] was 100%, the mortality at 100 g/ha [8] was 100% and the mortality at 500 g/ha [8] was 100%. The pest or weed control at 5 µg/cm2 [9] was 100%.
With `C[C@H](Nc1nc2cc(C(F)(F)F)cc(Cl)c2o1)c1ncnn1-c1ncc(F)cn1` [Example I-045, 7-Chlor-N-{(1S)-1-[1-(5-fluorpyrimidin-2-yl)-1H-1,2,4-triazol-5-yl]ethyl}-5-(trifluormethyl)-1,3-benzoxazol-2-amin] the pest or weed control at 5 µg/cm2, 5 µg/cm2 [1] was 100%, the mortality at 100 ppm [10] was 100% and the pest or weed control at 5 µg/cm2, 5 µg/cm2 [4] was 100%. It also gave a pest or weed control at 100 g/ha [7] of 100%, a pest or weed control at 160 µg/disc, 500 g/ha [7] of 100% and a pest or weed control at 0.004 mg [11] of 100%. For the same compound, the pest or weed control at 0.02 mg [11] was 100%, the mortality at 100 g/ha [8] was 100% and the mortality at 500 g/ha [8] was 100%. The pest or weed control at 5 µg/cm2 [9] was 80%.
`C[C@H](Nc1nc2cc(Cl)cc(Cl)c2o1)c1ncnn1-c1ncccn1` [Example I-013] gave a mortality at 100 ppm [10] of 90%, a mortality at 500 g/ha [12] of 100% and a pest or weed control at 160 µg/disc, 500 g/ha [7] of 100%. The pest or weed control at 5 µg/cm2 [9] was 100%.
Compound `C[C@H](Nc1nc2cc(OC(F)(F)F)c(Cl)cc2o1)c1ncnn1-c1ncccn1` [Example I-082, 6-Chlor-N-{(1S)-1-[1-(pyrimidin-2-yl)-1H-1,2,4-triazol-5-yl]ethyl}-5-(trifluormethoxy)-1,3-benzoxazol-2-amin] has a pest or weed control at 5 µg/cm2, 5 µg/cm2 [1] of 100%, a pest or weed control at 5 µg/cm2, 5 µg/cm2 [4] of 100% and a mortality at 4 ppm [6] of 100%. It also gave a pest or weed control at 100 g/ha [7] of 100%, a mortality at 100 g/ha [8] of 100% and a pest or weed control at 5 µg/cm2 [9] of 100%.
